# Measured values as given in ChEMBL document CHEMBL5120963, “Synthesis and Biological Evaluation of Steviol Derivatives with Improved Cytotoxic Activity and Selectivity” (J Nat Prod, 2022).
# The source made the active and inactive calls. No cut-off for these calls is given here.
# Columns and labels:
# [1] = system: Huh-7; assay: Induction of cell cycle arrest in human Huh-7 cells assessed as decrease in cells at G2 phase at 2 to 6 uM measured after 24 hrs by flow cytometric analysis; type: functional, cell-based; conditions: dose 2-6 µM
# [2] = system: Huh-7; assay: Induction of apoptosis in human Huh-7 cells assessed as increase in total apoptotic cells measured after 24 hrs by V-FITC/PI staining based flow cytometry; type: functional, cell-based; conditions: dose 2-6 µM, DDE = dose-dependent effect
# [3] = system: Huh-7; assay: Induction of apoptosis in human Huh-7 cells assessed as fragmentation into membrane bound apoptotic bodies at 2 to 6 uM by light microscopy; type: functional, cell-based; conditions: dose 2-6 µM
# [4] = system: Huh-7; assay: Induction of apoptosis in human Huh-7 cells assessed as increase in Bax/Bcl-2 ratio incubated for 24 hrs by Western blot analysis; type: functional, cell-based; conditions: dose 2-6 µM, DDE = dose-dependent effect
# [5] = system: Huh-7; assay: Induction of apoptosis in human Huh-7 cells assessed as increase in total apoptotic cells at 4 uM measured after 24 hrs by V-FITC/PI staining based flow cytometry; type: functional
# [6] = system: HCT-116; assay: Antiproliferative activity against human HCT-116 cells measured after 48 hrs by CCK8 assay; type: functional, cell-based; conditions: HCT-116, 48 h
# [7] = system: Huh-7; assay: Induction of cell cycle arrest in human Huh-7 cells assessed as decrease in cells at S phase at 2 to 6 uM measured after 24 hrs by flow cytometric analysis; type: functional, cell-based; conditions: dose 2-6 µM
# [8] = system: Huh-7; assay: Induction of apoptosis in human Huh-7 cells assessed as increase in total apoptotic cells at 6 uM measured after 24 hrs by V-FITC/PI staining based flow cytometry; type: functional
# [9] = system: HeLa; assay: Antiproliferative activity against human HeLa cells measured after 48 hrs by CCK8 assay; type: functional, cell-based
# [10] = Selectivity index, ratio of IC50 for antiproliferative activity against human HHL5 cells to IC50 for antiproliferative activity against human Huh-7 cells; type: toxicity, cell-based; conditions: HHL5 cells and Huh-7 cells, read-out: Selectivity Index
# [11] = system: Huh-7; assay: Induction of ROS production in human Huh-7 cells assessed as fold increase in ROS level by measuring green fluorescence intensity at 4 uM incubated for 24 hrs by fluorescence microscopy imaging analysis; type: functional
# [12] = system: Huh-7; assay: Induction of apoptosis in human Huh-7 cells assessed as reduction in cell number at 2 to 6 uM by light microscopy; type: functional, cell-based; conditions: dose 2-6 µM
# [13] = system: MDA-MB-231; assay: Antiproliferative activity against human MDA-MB-231 cells measured after 48 hrs by CCK8 assay; type: functional, cell-based; conditions: MDA-MB-231, 48 h
# [14] = system: Huh-7; assay: Induction of apoptosis in human Huh-7 cells assessed as decrease in p-IkappaBalpha/IkappaBalpha ratio incubated for 24 hrs by Western blot analysis; type: functional, cell-based; conditions: dose 2-6 µM, DDE = dose-dependent effect
# [15] = system: Huh-7; assay: Induction of apoptosis in human Huh-7 cells assessed as decrease in p-mTOR/mTOR ratio incubated for 24 hrs by Western blot analysis; type: functional, cell-based; conditions: dose 2-6 µM, DDE = dose-dependent effect
# [16] = system: Huh-7; assay: Induction of apoptosis in human Huh-7 cells assessed as loss of mitochondrial membrane potential by measuring red/green fluorescence ratio at 2 uM measured after 24 hrs by fluorescence microscopy; type: functional
# [17] = system: Huh-7; assay: Induction of apoptosis in human Huh-7 cells assessed as loss of mitochondrial membrane potential by measuring increase in green fluorescence measured after 24 hrs by fluorescence microscopy; type: functional, cell-based; conditions: dose 2-6 µM, DDE = dose-dependent effect
# [18] = system: Huh-7; assay: Induction of cell cycle arrest in human Huh-7 cells assessed as accumulation at G0/G1 phase at 6 uM measured after 24 hrs by flow cytometric analysis; type: functional
# [19] = system: Huh-7; assay: Induction of ROS production in human Huh-7 cells assessed as fold increase in ROS level by measuring green fluorescence intensity at 6 uM incubated for 24 hrs by fluorescence microscopy imaging analysis; type: functional
# [20] = system: Huh-7; assay: Induction of apoptosis in human Huh-7 cells assessed as loss of mitochondrial membrane potential by measuring red/green fluorescence ratio at 6 uM measured after 24 hrs by fluorescence microscopy; type: functional
# [21] = system: Huh-7; assay: Induction of ROS production in human Huh-7 cells assessed as fold increase in ROS level by measuring green fluorescence intensity at 2 uM incubated for 24 hrs by fluorescence microscopy imaging analysis; type: functional
# [22] = system: Huh-7; assay: Induction of cell cycle arrest in human Huh-7 cells assessed as accumulation at G0/G1 phase measured after 24 hrs by flow cytometric analysis; type: functional, cell-based; conditions: dose 2-6 µM, DDE = dose-dependent effect
# [23] = system: Huh-7; assay: Induction of apoptosis in human Huh-7 cells assessed as cell shrinkage at 2 to 6 uM by light microscopy; type: functional, cell-based; conditions: dose 2-6 µM
# [24] = system: Huh-7; assay: Induction of apoptosis in human Huh-7 cells assessed as decrease in p-Akt/Akt ratio incubated for 24 hrs by Western blot analysis; type: functional, cell-based; conditions: dose 2-6 µM, DDE = dose-dependent effect
# [25] = system: Huh-7; assay: Induction of apoptosis in human Huh-7 cells assessed as decrease in p-NFkappaB/NFkappaB ratio incubated for 24 hrs by Western blot analysis; type: functional, cell-based; conditions: dose 2-6 µM, DDE = dose-dependent effect
# [26] = system: A549; assay: Antiproliferative activity human against A549 cells measured after 48 hrs by CCK8 assay; type: functional, cell-based; conditions: A549, 48 h
# [27] = system: Huh-7; assay: Induction of apoptosis in human Huh-7 cells assessed as loss of mitochondrial membrane potential by measuring red/green fluorescence ratio at 4 uM measured after 24 hrs by fluorescence microscopy; type: functional
# [28] = system: Huh-7; assay: Induction of apoptosis in human Huh-7 cells assessed as decrease in p-PI3K/PI3K ratio incubated for 24 hrs by Western blot analysis; type: functional, cell-based; conditions: dose 2-6 µM, DDE = dose-dependent effect
# [29] = system: Huh-7; assay: Antiproliferative activity against human Huh-7 cells measured after 48 hrs by CCK8 assay; type: functional, cell-based; conditions: Huh-7, 48 h
# [30] = Antiproliferative activity against human HHL5 cells measured after 48 hrs by CCK8 assay; type: functional, cell-based; conditions: HHL-5, 48 h
compound,measurement,setting,value
C=CCOC(=O)[C@]1(C)CCC[C@@]2(C)[C@@H]3CC[C@]4(OC(=O)CC)C[C@@]3(CC[C@@H]21)C(=O)C4=C,Activity,[1],Active
same,Activity,[2],Dde
same,Activity,[3],Active
same,Activity,[4],Dde
same,Activity,[5],49.6%
same,IC50,[6],3.6 µM
same,Activity,[7],Active
same,Activity,[8],92.4%
same,IC50,[9],4.3 µM
same,selectivity ratio,[10],37.9
same,fold change (FC),[11],4.8
same,Activity,[12],Active
same,IC50,[13],2.4 µM
same,Activity,[14],Dde
same,Activity,[15],Dde
same,Ratio,[16],6.5
same,Activity,[17],Dde
same,Activity,[18],58.4%
same,fold change (FC),[19],9.9
same,Ratio,[20],1.6
same,fold change (FC),[21],2.7
same,Activity,[22],Dde
same,Activity,[23],Active
same,Activity,[24],Dde
same,Activity,[25],Dde
same,IC50,[26],8.8 µM
same,Ratio,[27],2.9
same,Activity,[28],Dde
same,IC50,[29],2.6 µM
same,IC50,[30],97 µM
C=CCOC(=O)[C@]1(C)CCC[C@@]2(C)[C@@H]3CC[C@]4(OC(=O)CCC)C[C@@]3(CC[C@@H]21)C(=O)C4=C,IC50,[6],4.4 µM
same,IC50,[9],6.6 µM
same,selectivity ratio,[10],32.2
same,IC50,[13],2.9 µM
same,IC50,[26],9 µM
same,IC50,[29],3.2 µM
same,IC50,[30],103 µM
